Here are results for nine compounds from paper PMC10856564, “Metabolites from Streptomyces aureus (VTCC43181) and Their Inhibition of Mycobacterium tuberculosis ClpC1 Protein” (Molecules, 2024).

“Also recorded” adds a separate entry of the source.

Assay [1] deals with Gr (+) and Gr (-) microbacteria. Conditions: in vitro; against Gr (+) and Gr (-) microbacteria; cited from earlier work. An excerpt:
Streptomyces aureus is a species of actinomycete belonging to the genus Streptomyces. Its spores are spherical or oval in shape, and the average diameter is about 0.9 μ in width and 1.2 μ in length. […] The morphological characteristics of the S. aureus depend on different nutritional environments. A previous study reported that many active secondary metabolites were produced by this actinomycete strain. Alkaloid azirinomycin and 3-methyl-2H-azirine-2-carboxylic acid isolated fr ...

The test system of assay [2] is recombinant ClpC1 protein. It is filed as biochemical. Conditions: compounds at 0.1 µM, 1.0 µM, and 10.0 µM, released phosphate, BIOMOL Green, absorbance at 620 nm; for Affection of ATPase activity of ClpC1: controls ecumicin and rufomycin, values only in Figure 5.
For assay [3] the following is noted: cited from earlier work. As for the experimental part: Compound 1 (7 mg) was afforded after purification using Sephadex and silica gel column chromatography, followed by thin-layer chromatography. This compound was obtained as a colorless powder.
The test system of the next assay is HCV NS3 protease. Conditions: cited from earlier work. How it is done:
(§1) Compound 2 (3 mg) was yielded after column chromatography on normal-phase silica gel and the Sephadex LH20 column. Compound 2 (3 mg) was obtained as a white powder. […] The NMR data of compound 2 indicated a lactone ring structure consisting ...

The conditions of assay [4]: cited from earlier work. How it is done: as §1
This is another data set of the same source.

A further assay has as its system leukocyte. Conditions: cited from earlier work. As for the experimental part:
as §1

The next assay concerns tuberculosis bacteria. Conditions: through targeting the regulatory protein ClpC1; cited from earlier work.
In assay [5] the test system is ClpC1. Conditions: cited from earlier work; for ClpC1 inhibition: no reference at the place.
Assay [6] relates to ClpC1. Conditions: cited from earlier work.
The next assay has as its system ClpC1/CplP1/ClpP2. Particulars: via change in configuration of ClpC1; cited from earlier work.
The conditions of assay [7]: cited from earlier work. As for the experimental part:
Compound 3 (12 mg) was obtained as a white solid. This compound was afforded after two reverse-phase column chromatography. […] In the ^1H NMR spectrum, ten signals of protons appeared at δH 3.57–3.54 (2H, m, α-H of Leu^1 & Leu^2), 3.50 (1H, d, J = 3.5, α-H of Ile), 3.43 (3H, d, J = 4.5, α-H of Ala^1, Ala^2, and Ala^3), 1.97–1.95 (1H, m, β-H of Ile), 1.83–1.77 (2H, m, γ-H of Leu^1, and Leu^2), 1.83–1.59 (4H, m, β-H of Leu^1, and Leu^ ...
This is another data set of the same source.

On to `CC1=NC1C(=O)O` (centres unmarked) [azirinomycin], for which the antibiotic activity entry in assay [1] is recorded as “exhibited broad-spectrum antibiotic activity in vitro”.
For the compound `O=C1CCC(=O)N(O)CCCCCNC(=O)CCC(=O)N(O)CCCCCNC(=O)CCC(=O)N(O)CCCCCN1` [compound 1, nocardamin], the “Affection of ATPase activity of ClpC1” value in assay [2] is “did not affect the ATPase activity of ClpC1”. In addition, in assay [3], the antimalarial activity result is “antimalarial activity” and the siderophore activity entry was “showed siderophore activity”.
Take `O=c1ccoc(=O)o1` [compound 2, 4H-1,3-dioxine-2,4-dione]: the “Affection of ATPase activity of ClpC1” value in assay [2] is listed as “did not affect the ATPase activity of ClpC1”. Besides, in the assay with HCV NS3 protease, the IC50 was 78.9 µM. In addition, in assay [4], the antioxidant activity result was “possesses antioxidant activity”. Moreover, in the assay on leukocyte, the leukocyte inhibitory effects result is listed as “leukocyte inhibitory effects”.
Consider Cyclomarin A, for which the anti-tuberculosis activity entry with tuberculosis bacteria is “anti-tuberculosis activity through the mechanism of targeting the regulatory protein ClpC1 of tuberculosis bacteria”.
For cyclomarin, the “effect on ATPase activity of ClpC1” value with ClpC1 [5] is “shown to affect the ATPase activity of ClpC1”.
ecumicin: the “binding site on ClpC1” value with ClpC1 [6] is “binded to the allosteric site of ClpC1, causing a change in configuration”. Besides, in the assay on ClpC1 [5], the “effect on ATPase activity of ClpC1” value is “shown to affect the ATPase activity of ClpC1” and the ClpC1 inhibition entry is “inhibited ClpC1”. The effect on proteolysis result with ClpC1/CplP1/ClpP2 is listed as “affecting proteolysis of ClpC1/CplP1/ClpP2”.
For the compound halolitoralin A [compound 3], in assay [2] (comparison with standard compound ecumicin), the “ATP hydrolysis effect of ClpC1 compared with ecumicin” value is listed as “similarly to ecumicin, but with lower ATP hydrolysis affection; also recorded: affected the ATPase activity of ClpC1 in a similar way to the standard compound ecumicin; also recorded: showed the effect on the ATPase hydrolysis activity of ClpC1, acting similar way to the antibiotic eucumicin”. Besides, the “Affection of ATPase activity of ClpC1” value in assay [2] was “effective for the ATPase hydrolysis of the ClpC1 protein”. In [7], the anthelmintic activity entry is “anthelmintic activity” and the antimicrobial activity entry is reported as “potent antimicrobial activity”. The antitumor activities result in [7] (in vitro) is on record as “antitumor activities in vitro”.
Take lassomycin: in the assay on ClpC1 [5], the “effect on ATPase activity of ClpC1” value is recorded as “shown to affect the ATPase activity of ClpC1” and the ClpC1 inhibition result was “inhibited ClpC1”.
For the compound rufomycin, in the assay with ClpC1 [5], the “effect on ATPase activity of ClpC1” value is listed as “shown to affect the ATPase activity of ClpC1” and the ClpC1 inhibition result is “inhibited ClpC1”.

In general, IC50 refers to the concentration needed to halve the response being measured.
